IC50 data for ten molecules are collected here from patent US8202885B2, “Bridged six-membered ring compounds” (Actelion Pharmaceuticals Ltd., priority 2007, dated 2012).

By IC50 is commonly meant the concentration that gives 50% inhibition.

Where only a bound is given, the exact number is not on record here.

This assay has as its system human Cav3.1 Cav3.2 or Cav3.3 channel. Nature of the assay: In vitro assay T channel (FLIPR calcium fluorescence). In kind it is cell-based. The settings on record: HEK293 cells expressing human Cav3.1, Cav3.2 or Cav3.3; 10 mM Ca2+-induced fluo-4 fluorescence; determined up to 10 μM; read-out: T channel antagonistic activity IC50. The method in brief:
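HEK293 cells stably expressing human Cav3.1, Cav3.2 or Cav3.3 loaded with fluo-4 AM (3 μM), preincubated 3 min with antagonist, then stimulated with 10 mM Ca2+ in TEA-chloride/HEPES buffer pH 7.2. FLIPR fluorescence read every 2 s for 8 min; IC50 from peak area versus vehicle, tested up to 10 μM.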
For the molecule `CC(C)C(=O)O[C@@]1(CCN(C)CCCc2cnc3occc3c2)C[C@H]2CC[C@@H]1C=C2c1ccccc1` (relative stereo) [Example 41A, rac-Isobutyric acid (1R*,2R*,4R*)-2-{2-[(3-furo[2,3-b]pyridin-5-yl-propyl)-methyl-amino]-ethyl}-5-phenyl-bicyclo[2.2.2]oct-5-en-2-yl ester], the IC50 is 8.26 µM. Under `Cc1cc2cc(CCCN(C)CC[C@]3(O)C[C@H]4CC[C@@H]3C=C4c3ccccc3)cnc2o1` (relative stereo) [Example 42, rac-(1R*,2R*,4R*)-2-(2-{Methyl-[3-(2-methyl-furo[2,3-b]pyridin-5-yl)-propyl]-amino}-ethyl)-5-phenyl-bicyclo[2.2.2]oct-5-en-2-ol] stands over 10 µM; under `Cc1cc2cc(CCCN(C)CC[C@]3(OC(=O)C(C)C)C[C@H]4CC[C@@H]3C=C4c3ccccc3)cnc2o1` (relative stereo) [Example 42A, rac-Isobutyric acid (1R*,2R*,4R*)-2-(2-{methyl-[3-(2-methyl-furo[2,3-b]pyridin-5-yl)-propyl]-amino}-ethyl)-5-phenyl-bicyclo[2.2.2]oct-5-en-2-yl ester], over 10 µM.

As for `COCC(C)(COC)C(=O)NCCCN(C)CC[C@]1(O)C[C@H]2CC[C@@H]1C=C2c1ccccc1` (relative stereo) [Example 43, rac-N-(3-{[2-((1R*,2R*,4R*)-2-Hydroxy-5-phenyl-bicyclo[2.2.2]oct-5-en-2-yl)-ethyl]-methyl-amino}-propyl)-3-methoxy-2-methoxymethyl-2-methyl-propionamide], the IC50 is over 10 µM. On to `COCC(C)(COC)C(=O)NCCCN(C)CC[C@]1(OC(=O)C(C)C)C[C@H]2CC[C@@H]1C=C2c1ccccc1` (relative stereo) [Example 43A, rac-Isobutyric acid (1R*,2R*,4R*)-2-(2-{[3-(3-methoxy-2-methoxymethyl-2-methyl-propionylamino)-propyl]-methyl-amino}-ethyl)-5-phenyl-bicyclo[2.2.2]oct-5-en-2-yl ester], for which the IC50 came out at 2.71 µM.

`COC(C)(C)C(=O)NCCCN(C)CC[C@]1(O)C[C@H]2CC[C@@H]1C=C2c1ccccc1` (relative stereo) [Example 44, rac-N-(3-{[2-((1R*,2R*,4R*)-2-Hydroxy-5-phenyl-bicyclo[2.2.2]oct-5-en-2-yl)-ethyl]-methyl-amino}-propyl)-2-methoxy-2-methyl-propionamide]: the IC50 was over 10 µM. For `COC(C)(C)C(=O)NCCCN(C)CC[C@]1(OC(=O)C(C)C)C[C@H]2CC[C@@H]1C=C2c1ccccc1` (relative stereo) [Example 44A, rac-Isobutyric acid (1R*,2R*,4R*)-2-(2-{[3-(2-methoxy-2-methyl-propionylamino)-propyl]-methyl-amino}-ethyl)-5-phenyl-bicyclo[2.2.2]oct-5-en-2-yl ester], the IC50 was over 10 µM. Next, `CC(C)C(=O)O[C@@]1(CCN(C)CCCNC(=O)C(C)(C)C)C[C@H]2CC[C@@H]1C=C2c1ccccc1` (relative stereo) [Example 45A, rac-Isobutyric acid (1R*,2R*,4R*)-2-(2-{[3-(2,2-dimethyl-propionylamino)-propyl]-methyl-amino}-ethyl)-5-phenyl-bicyclo[2.2.2]oct-5-en-2-yl ester]: 1.7 µM; `CN(CCCc1cccnc1)CC[C@]1(O)C[C@H]2CC[C@@H]1C=C2c1ccccc1` (relative stereo) [Example 46, rac-(1R*,2R*,4R*)-2-{2-[Methyl-(3-pyridin-3-yl-propyl)-amino]-ethyl}-5-phenyl-bicyclo[2.2.2]oct-5-en-2-ol]: over 10 µM; `CC(C)C(=O)O[C@@]1(CCN(C)CCCc2nc(-c3ccccc3)c(-c3ccccc3)[nH]2)C[C@H]2CC[C@@H]1C=C2c1ccccc1` (relative stereo) [Example 47A, rac-Isobutyric acid (1R*,2R*,4R*)-2-(2-{[3-(4,5-diphenyl-1H-imidazol-2-yl)-propyl]-methyl-amino}-ethyl)-5-phenyl-bicyclo[2.2.2]oct-5-en-2-yl ester]: 8.03 µM.
